Data: patent publication US20260174734A1, “PHARMACEUTICAL COMPOSITION” (MEXICHEM FLUOR S.A. DE C.V., priority 2016, published 2026)

Experiments:
[1] = In vitro aerosolization performance from MDI (Next Generation Impactor); type: physicochemical
Protocol: The drugs were weighed directly into standard uncoated 14 ml aluminium canisters (C128, Presspart, Blackburn, UK). The canisters were then crimped with a 50 μL valve (Bespak, Kings Lynn, UK) following which the propellant was filled into the canisters through the valve using a manual Pamasol crimper/filler (Pamasol, Switzerland).
Finally, the canisters were sonicated for 20 minutes to aid dispersion of the drug in the suspension.
The in vitro aerosolization performance of the formulations was tested immediately after preparation (time t=zero) with a Next Generation Impactor using the method described below. The formulations were then stored under stress storage conditions (valve down) at 40° C. and 75% relative humidity for 1 month. After storing for 1 month under the stress storage conditions, the in vitro aerosolization performance of the pharmaceutical formulations was tested again as before with a Next Generation Impactor using the method described below.
The Next Generation Impactor (NGI, Copley Scientific, Nottingham UK) was connected to a vacuum pump (GE Motors, NJ, USA). Prior to testing, the cups of the NGI system were coated with 1% v/v silicone oil in hexane to eliminate particle bounce. For each experiment, three actuations of the valve were discharged into the NGI at 30 L.min-1 as per pharmacopeia guidelines. Following aerosolization, the NGI apparatus was dismantled and the actuator and each part of the NGI was washed down into known volumes of the HPLC mobile phase. The mass of drug deposited on each part of the NGI was determined by HPLC. This protocol was repeated three times for each canister, following which, the fine particle dose (FPD) and fine particle fraction of the emitted dose (FPFED) were determined.
High performance liquid chromatography (HPLC) was used to determine drug content following aerosolization studies (see below).
(§1) The columns were coupled to a UV detector operating at a wavelength of either 220 nm or 235 nm depending on which drug was being analysed. The autosampler was operated at ambient temperature and 100 μl samples were injected into the column for the analyses.

[2] = Chemical stability in propellant in uncoated aluminium cans (HPLC assay and total impurities); settings: for % Assay (LC) / % total impurities: uncoated aluminium cans
Protocol: as §1

[3] = HFA-134a propellant, T = 0, combination formulation, MDI
[4] = HFA-134a propellant, T = 1 month @ 40° C./75% RH, valve down
[5] = HFA-152a propellant, T = 0, combination formulation, MDI
[6] = HFA-152a propellant, T = 1 month @ 40° C./75% RH, valve down
[7] = HFA-134a, T = 1M @ 25° C./60% RH
[8] = HFA-134a, T = 1M @ 40° C./75% RH
[9] = HFA-134a, T = 3M @ 25° C./60% RH
[10] = HFA-134a, T = 3M @ 40° C./75% RH
[11] = HFA-152a, T = 1M @ 25° C./60% RH
[12] = HFA-152a, T = 1M @ 40° C./75% RH
[13] = HFA-152a, T = 3M @ 25° C./60% RH
[14] = HFA-152a, T = 3M @ 40° C./75% RH

Structure (SMILES) | Emitted Dose (μg ± S.D.) [1, 3] [µg] | Fine Particle Dose (μg ± S.D.) [1, 3] [µg] | MMAD ± GSD (μm) [1, 3] [μm] | Emitted Dose (μg ± S.D.) [1, 4] [µg] | Fine Particle Dose (μg ± S.D.) [1, 4] [µg] | MMAD ± GSD (μm) [1, 4] [μm] | Emitted Dose (μg ± S.D.) [1, 5] [µg] | Fine Particle Dose (μg ± S.D.) [1, 5] [µg] | MMAD ± GSD (μm) [1, 5] [μm] | Emitted Dose (μg ± S.D.) [1, 6] [µg] | Fine Particle Dose (μg ± S.D.) [1, 6] [µg] | MMAD ± GSD (μm) [1, 6] [μm] | % Assay (LC) ([2]; HFA-134a, Initial time T = 0) [%] | % total impurities ([2]; HFA-134a, Initial time T = 0) | % Assay (LC) [2, 7] [%] | % total impurities [2, 7] [%] | % Assay (LC) [2, 8] [%] | % total impurities [2, 8] [%] | % Assay (LC) [2, 9] [%] | % total impurities [2, 9] [%] | further results
C[N+]1(C)CCC(OC(=O)C(O)(c2ccccc2)C2CCCC2)C1 (stereo not shown) [Glycopyrronium Bromide, glycopyrronium bromide] | 43.7 ± 0.2 | 12.6 ± 0.1 | 2.6 ± 2.4 | 38.7 ± 0.6 | 11.4 ± 0.4 | 2.8 ± 2.3 | 45.2 ± 0.7 | 21.0 ± 1.0 | 3.1 ± 2.2 | 44.2 ± 0.6 | 20.7 ± 0.8 | 3.0 ± 2.2 | 98.5 | 0.19% | 98.2 | 0.28 | 97.8 | 0.39 | 94.8 | 1.15 | MMAD ([1]; HFA-134a based formulations): around 2.6 μm; % Assay (LC) [2, 10]: 93.8%; % total impurities [2, 10]: 1.38%; % Assay (LC) ([2]; HFA-152a, Initial time T = 0): 98.5%; % total impurities ([2]; HFA-152a, Initial time T = 0): 0.19%; % Assay (LC) [2, 11]: 98.6%; % total impurities [2, 11]: 0.25%; % Assay (LC) [2, 12]: 98.4%; % total impurities [2, 12]: 0.35%; % Assay (LC) [2, 13]: 97.6%; % total impurities [2, 13]: 0.55%; % Assay (LC) [2, 14]: 97.2%; % total impurities [2, 14]: 0.82%
CCC(=O)O[C@]1(C(=O)SCF)[C@H](C)C[C@H]2[C@@H]3C[C@H](F)C4=CC(=O)C=C[C@]4(C)[C@@]3(F)[C@@H](O)C[C@@]21C [Fluticasone Propionate, fluticasone propionate] | 119.0 ± 2.0 | 38.8 ± 1.7 | 3.0 ± 1.8 | 112.8 ± 2.3 | 32.8 ± 1.9 | 3.1 ± 1.9 | 111.8 ± 0.7 | 51.5 ± 1.9 | 3.0 ± 1.9 | 105.6 ± 0.8 | 48.5 ± 1.5 | 2.9 ± 1.9 | 98.5 | <LoQ | 98.2 | 0.19 | 97.8 | 0.38 | 94.8 | 0.58 | FPFED (%) fine particle fraction of the emitted dose [1, 3]: 32.6 ± 0.9%; FPFED (%) fine particle fraction of the emitted dose [1, 4]: 29.0 ± 1.9%; FPFED (%) fine particle fraction of the emitted dose [1, 5]: 46.1 ± 1.5%; FPFED (%) fine particle fraction of the emitted dose [1, 6]: 45.2 ± 1.2%; % Assay (LC) [2, 10]: 93.8%; % total impurities [2, 10]: 0.69%; % Assay (LC) ([2]; HFA-152a, Initial time T = 0): 98.5%; % total impurities ([2]; HFA-152a, Initial time T = 0): <LoQ; % Assay (LC) [2, 11]: 98.6%; % total impurities [2, 11]: <LoQ; % Assay (LC) [2, 12]: 98.4%; % total impurities [2, 12]: 0.18%; % Assay (LC) [2, 13]: 97.6%; % total impurities [2, 13]: <LoQ; % Assay (LC) [2, 14]: 97.2%; % total impurities [2, 14]: 0.58%
CCc1cc2c(cc1CC)CC(NC[C@H](O)c1ccc(O)c3[nH]c(=O)ccc13)C2 [Indacaterol, indacaterol] | – | – | – | – | – | – | – | – | – | – | – | – | – | – | – | – | – | – | – | – | chemical stability under accelerated test conditions, HFA-152a rather than HFA-134a ([2]; HFA-152a as aerosolization propellant versus HFA-134a): superior chemical stability
